Patent publication US20230278997A1, “BICYCLO[1.1.1]PENTANE COMPOUNDS FOR THE TREATMENT AND PROPHYLAXIS OF HEPATITIS B VIRUS INFECTION” (Hoffmann-La Roche Inc., priority 2020, published 2023)
pIC50: −log10 of the molar value.

Tests used:
[1] = system: primary human hepatocyte (PHH); experiment: Cytotoxicity in PHH natural infection assay (Cell Counting Kit-8); format: cell-based; details: therapeutic index; CC50 by CCK8 in PHH over HBsAg IC50
Experimental: Detailed procedures regarding primary human hepatocyte (PHH) HBV natural infection assay are described as below. One tube of frozen PHH (10 million cells) was thawed in 37° C. water bath and then transferred to 20 mL of PHH thawing medium (Sigma, InVitroGRO HT Medium, Cat. 503319) with gently mixing. The cells were then centrifuged at […] for 5 min, the supernatant was discarded and the tube was refilled with 25 mL of PHH plating medium (Sigma, InVitroGRO CP Medium, Cat. 503317). The tube was shaken very gently to re-suspend all cells, and then 50 μl of cells were transferred to each well of a 384-well collagen I coated plate with appropriate liquid handling equipment, e.g. Integra VIAFLO384 or Agilent Bravo. The cells were then cultured for 24 hours in a cell incubator. For HBV infection, after PHH attachment on the culture plate, the plating medium was removed and replenished with PHH culture medium containing HBV virus. The PHH culture medium was prepared with Dulbecco's Modified Eagle Medium (DMEM)/F12 (1:1 in volume ratio) containing 10% fetal bovine serum (Gibco, Cat.10099141), 5 ng/mL human epidermal growth factor (Gibco, Cat.PHG031 IL), 20 ng/mL dexamethasone (Sigma, Cat.D4902-100 mg), 250 ng/mL human recombinant insulin (Gibco, Cat.41400045) and 100 U/mL penicillin. HBV virus at 200 genome equivalent (GE) per cell with 4% PEG8000 (Sigma, Cat.P1458) containing culture medium were added to the PHH culture medium for infection. The cells were then cultured for 24 hours in cell incubator. Then the cell culture supernatant was removed. The HBV-infected PHH were cultured with sandwich culture method with PHH culture medium containing 1% DMSO and 0.25 mg/mL matrix gel for 72 hours. The supernatant was then refreshed with PHH culture medium containing different concentrations of testing compounds for two times with 72-hour interval. At the end of treatment, the supernatant was collected for viral markers measurements, including HBsAg, HBeAg, HBV DNA and cytotoxicity. HBsAg and HBeAg were detected using alphalisa method using their specific antibodies. For HBV DNA detection, HBV DNA Quantitative Fluorescence Diagnostic Kit (Sansure Biotech Inc.) was used following the manufacture's protocol. Cytotoxicity was determined using Cell Counting Kit-8 (CCK8, Dojindo Molecular Technologies, Inc.).

[2] = Human microsome stability assay; format: in vitro ADME; details: 1 μM compound, 0.5 mg/mL microsomal protein, 37° C.; detection limit 6.15 mL/min/kg
Experimental: Human Microsome Stability Assay The human microsomal stability assay is used for early assessment of metabolic stability of a test compound in human liver microsomes. Human liver microsomes (Cat. […] The reactions were initiated by adding NADPH regenerating system. […] Following precipitation and centrifugation, the amount of compound remaining in the samples were determined by LC-MS/MS. Controls of no NADPH regenerating system at zero and 30 minutes were also prepared and analyzed.

HBeAg = experiment: microbe, parasite or virus in culture; format: cell-based, HBV; details: Hepatitis B virus, read-out: HBeAg IC50
HBsAg = experiment: microbe, parasite or virus in culture; format: cell-based, HBV; details: Hepatitis B virus, read-out: HBsAg IC50

| SMILES | TI (CC50/IC50 HBsAg) [1] | Clearance of human microsome [2] [mL/min/kg] | pIC50 (HBeAg) | pIC50 (HBsAg) |
| --- | --- | --- | --- | --- |
| CS(=O)(=O)C1(c2ccc(C(=O)NC34CC(c5nnn(-c6ccc(Cl)cc6)n5)(C3)C4)o2)CC1 [Example 44, N-[3-[2-(4-chlorophenyl)tetrazol-5-yl]-1-bicyclo[1.1.1]pentanyl]-5-(1-methylsulfonylcyclopropyl)furan-2-carboxamide] | 12.20 | ≤6.15 | 6.57 | 6.46 |
| CS(=O)(=O)C1(c2nsc(C(=O)NC34CC(c5nc(-c6ccc(F)cc6)no5)(C3)C4)n2)CC1 [Example 35, N-[3-[3-(4-fluorophenyl)-1,2,4-oxadiazol-5-yl]-1-bicyclo[1.1.1]pentanyl]-3-(1-methylsulfonylcyclopropyl)-1,2,4-thiadiazole-5-carboxamide] | 79.80 | ≤6.15 | 7.40 | 7.30 |
| CS(=O)(=O)C1(c2ccc(C(=O)NC34CC(c5nc(-c6cccc(Cl)c6)cs5)(C3)C4)o2)CC1 [Example 2, N-[3-[4-(3-chlorophenyl)thiazol-2-yl]-1-bicyclo[1.1.1]pentanyl]-5-(1-methylsulfonylcyclopropyl)furan-2-carboxamide] | 20.66 | ≤6.15 | 6.70 | 6.46 |
| CS(=O)(=O)C1(c2ccc(C(=O)NC34CC(c5ccnc(-c6ccc(Cl)cc6)n5)(C3)C4)o2)CC1 [Example 47, N-[3-[2-(4-chlorophenyl)pyrimidin-4-yl]-1-bicyclo[1.1.1]pentanyl]-5-(1-methylsulfonylcyclopropyl)furan-2-carboxamide] | 59.67 | ≤6.15 | 6.85 | 6.82 |
| CS(=O)(=O)C1(c2ccc(C(=O)NC34CC(c5nc(-c6ccc(Cl)c(Cl)c6)cs5)(C3)C4)o2)CC1 [Example 8, N-[3-[4-(3,4-dichlorophenyl)thiazol-2-yl]-1-bicyclo[1.1.1]pentanyl]-5-(1-methylsulfonylcyclopropyl)furan-2-carboxamide] | 16.69 | ≤6.15 | 6.96 | 6.80 |
| CS(=O)(=O)C1(c2nsc(C(=O)NC34CC(c5ccn(-c6ccc(Cl)cc6)n5)(C3)C4)n2)CC1 [Example 43, N-[3-[1-(4-chlorophenyl)pyrazol-3-yl]-1-bicyclo[1.1.1]pentanyl]-3-(1-methylsulfonylcyclopropyl)-1,2,4-thiadiazole-5-carboxamide] | >111.11 | ≤6.15 | 7.10 | 7.05 |
| CS(=O)(=O)C1(c2ccc(C(=O)NC34CC(c5nc(-c6ccc(Cl)cn6)cs5)(C3)C4)o2)CC1 [Example 10, N-[3-[4-(5-chloro-2-pyridyl)thiazol-2-yl]-1-bicyclo[1.1.1]pentanyl]-5-(1-methylsulfonylcyclopropyl)furan-2-carboxamide] | 31.11 | ≤6.15 | 6.70 | 6.55 |
| CS(=O)(=O)C1(c2ccc(C(=O)NC34CC(c5csc(-c6ccc(Cl)cc6)n5)(C3)C4)o2)CC1 [Example 27, N-[3-[2-(4-chlorophenyl)thiazol-4-yl]-1-bicyclo[1.1.1]pentanyl]-5-(1-methylsulfonylcyclopropyl)furan-2-carboxamide] | 39.46 | ≤6.15 | 7.05 | 6.89 |
| CS(=O)(=O)C1(c2ccc(C(=O)NC34CC(c5csc(-c6ccccc6)n5)(C3)C4)o2)CC1 [Example 26, 5-(1-methylsulfonylcyclopropyl)-N-[3-(2-phenylthiazol-4-yl)-1-bicyclo[1.1.1]pentanyl]furan-2-carboxamide] | 8.91 | ≤6.15 | 6.28 | 6.11 |
